Patent US20210251208A1, “COMPOSITION AND METHOD FOR ATTRACTING BED BUGS” (NATTARO LABS AB, priority 2016, published 2021)
Where “and” joins values, the source holds several entries; their conditions need not be identical. Equal entries are not always repeated. Entries after “also recorded” stand apart in the source; their conditions may differ.

Assays:
[1] = tested on: bed bugs; assay: Arena test of baits (52 cm arena, ten bed bugs, 30 minutes); assay type: in vivo; settings: baits formulated using 3 wt % methylcellulose
Description: In these tests bed bugs were placed in an arena and allowed to freely move around while the movement patterns were recorded, including in particular the time that bed bugs spent in proximity to each of the three different stations, each station comprising a bait (test compound) or control.
The arena comprised a round (52 cm diameter) white painted metal tray with a 3.8 cm high rim. Evenly spaced half way between centrum and periphery three holes (3.4 cm diam) were bored. To prevent bed bug escape the rim was painted with Insect-a-Slip (#2871C Fluon, BioQuip Products, Inc. 2321 E, Chadwick St., Rancho Dominguez, Calif. 90220) resulting in a non-porous slippery, surface at the rim of the tray.
Three plastic containers (34 mm diam×7 cm high), each with a net covered hole (18 mm diam) at the bottom to allow airflow, were attached below the holes at the underside of the arena using clay dough. At the start of an experiment the compounds/baits and controls were placed one in each container below the arena. […]
Bed bugs, ten at a time, were introduced in separate vials into the middle of the arena and simultaneously video recording was started. […] At the end of the 30 minutes experimental period, the number of bed bugs in each container, and beneath or at the rim of the convex glass sheet above each container was scored. […] The final position was not recorded during early experiments. […]

[2] = Dynamic headspace collection of volatiles from bait, GC-MS; assay type: physicochemical; settings: abefg 1:1:1:1:1 in gelatine 100 mg/l of each compound
Description: After collection of the enfleurage samples head-space collections were made from each container using a special lid into which an adsorbent plug was inserted. The head-space of all containers in a replicate was collected simultaneously under dark conditions (except the first samples of replicate one) using battery operated membrane pumps. The air-flow through each container was adjusted to 35-40 ml/min. The head-space samples were collected for 2 hours for replicate one to three after the first week, but was extended to 4-6 hours for replicate 4 & 5 and for all replicates and collections after the second week. This was done to secure more material as the first samples were very weak.
The samples were analyzed on a gas chromatograph (GC, Hewlett-Packard 6890 Series) equipped with a polar capillary column (Innowax; 30 m long, 0.25 mm i.d. and film thickness 0.25 μm Agilent Technologies USA) coupled to a mass spectrometer (Hewlett-Packard 5973 Mass Selective Detector). The injector temperature was 225° C. and the injection splitless. The GC temperature was programmed for 2 min at 40° C. followed by a gradual increase of 8°/min to 225° C., where the temperature was held steady for five min. Compounds were identified against the spectra and retention times of authentic reference compounds or in a few cases against the spectral libraries of ADAM and NIST2011.
One of the baits used in the Arena test was placed in a container and the dynamic headspace was collected as described in example 1 and analysed using Gas chromatography-Mass spectroscopy (GC-MS).

[3] = tested on: bed bugs; assay: Arena test of individual compounds vs. blend (40 cm arena, synergy); assay type: in vivo; settings: individual compound 100 mg/l in gelatine, five females and five males, N = 10
Description: The following six tests were carried out: arena test of each of the five compounds a, b, e, f, and g individually and a test of the whole blend abefg. The procedure was the following.
Gelatine solutions (lures) each containing a total of 100 mg/l of either (a) E-2-hexenal, (b) E-2-octenal, (e) E-2-hexenoic acid, (f) 2-octenoic acid and (g) 2-hexanone or the combination of the five compounds abefg were prepared.
Five female and five male bedbugs were released into the centre of the arena in a dark room. The arena was lit with infrared light and after an initial 5 min acclimatization bed bugs were released in the middle of the arena and left for 30 minutes during which time their activity was video-recorded using an Infrared light camera coupled to Noldus Ethovision 15 program. At the end of the 30 minutes period, the bed bugs were manually collected and their positions recorded.
After each replicate, the arena was cleaned with 70% ethanol and the position of the compound and controls were shifted. Ten replicates were made with each of the individual compound lures and the whole blend totalling 60 tests comprising 600 bed bugs, 300 females and 300 males. […] This value was subtracted from the number of bed bugs attracted to each lure correcting for the random part in the attraction in each replicate. The corrected values were used to calculate the average number of bed bugs attracted to each individual lure chemical and to the lure blend.

[4] = Stability / shelf-life of baits; assay type: physicochemical; settings: ascorbic acid included in gelatine baits
Excerpt: The inclusion of ascorbic acid was thus subsequently discontinued.

Compound | attractive effect in (initial) Arena tests [1] | AMOUNT in headspace of bait ([2]; Sample no. 15:209-213) [nano gram/hour] | AMOUNT in headspace of bait ([2]; Sample no. 15:215-219) [nano gram/hour] | AMOUNT in headspace of bait ([2]; Sample no. 15:245.1-5) [nano gram/hour] | AMOUNT in headspace of bait ([2]; Sample no. 16:02.1-5) [nano gram/hour] | AMOUNT in headspace of bait ([2]; Sample no. 16.37-40) [nano gram/hour] | No. of bed bugs at test compound position at end of experiment (average, corrected for random attraction to controls) [3] | effect of anti-oxidant on baits / shelf-life of the composition [4]
CCC(=O)/C=C/C=O [4-Oxo-(E)-2-hexenal] | no attractive effect, rather as having a repulsive effect |  |  |  |  |  |  | 
(E)-octenoic acid |  | 0 | 0.8 | 0 | 0 | 0.01 |  | 
CCCCCC=CC(=O)O [(f) E-2-octenic acid, 2-Octenoic acid] |  |  |  |  |  |  | 0.35 | 
O=C1O[C@H]([C@@H](O)CO)C(O)=C1O [ascorbic acid] |  |  |  |  |  |  |  | degraded the baits and resulted in lower efficiency of the baits; also recorded: decreased the shelf-life of the composition
CCC/C=C/C(=O)O [(e) E-2-hexenoic acid, (E)-2-hexenoic acid] |  | 0.2 | 3.1 | 0 | 1.4 | 0.08 | 0.55 | 
CCCCC/C=C/C=O [(b) E-2-octenal, (E)-2-octenal] |  |  |  |  |  |  | 1.35 | 
CCCCC(C)=O [(g) 2-hexanone, 2-Hexanone] |  | 429.1 | 310.3 | 168.2 | 76.1 | 402.0 | 1.35 | 
(Z)- & (E)-2-Hexenal |  | 565.6 | 234.6 | 136.3 | 102.2 | 258.3 |  | 
CCC/C=C/C=O [(a) E-2-hexenal, (E)-2-hexenal] |  |  |  |  |  |  | slightly deterrent effect and −0.50 | 
(Z)- & (E)-2-octenal |  | 914.5 | 477.6 | 438.5 | 405.2 | 349.9 |  | 
CCCCC(=O)/C=C/C=O [4-oxo-(E)-2-octenal, 4-Oxo-(E)-2-octenal] | no attractive effect, rather as having a repulsive effect |  |  |  |  |  |  | 
